Test results from patent US10064839B2, “Methods of treating liver diseases” (Zafgen, Inc., priority 2012, dated 2018).

Key:
[1] = Plasma protein binding, human; assay type: in vitro ADME; settings: read-out: Plasma protein binding (h/r/m, %): h (converted)
72 receptors and enzymes = experiment: CEREP screen; settings: at 10 μM across 72 receptors and enzymes
NASH mice = experiment: Non-alcoholic steatohepatitis (STZ + high fat diet) mouse model; assay type: in vivo; settings: for Mean body weight at the day before sacrifice: 5 to 9 weeks of age, Vehicle 18.8±1.0 g; for Fibrosis area (Sirius red-positive area): Vehicle 1.07±0.18%; for Inflammation area (F4/80-positive area): Vehicle 3.57±0.88%; for Fat deposition area (oil red-positive area): Vehicle 23.57±6.52%; for Liver TG content: Vehicle 67.3±29.0; for Whole blood HbA1c levels: FIG. 9; for NAFLD Activity score (NAS): Vehicle 5.4±0.9
Method: NASH was induced in 48 male mice by a single subcutaneous injection of 200 μg streptozotocin (STZ; Sigma-Aldrich) in the back of mice 2 days after birth, and by feeding with high fat diet (HFD; 57 kcal % fat) after 4 weeks of age. At 5 weeks of age, the NASH mice were randomized into 6 groups of 8 mice based on body weight. Eight male littermates, fed with normal diet (without STZ treatment, were used for the Normal group. Vehicle, Compound A and Telmisartan were administered by the oral route in a volume of 10 mL/kg body weight.
Compound A was administered twice daily at doses of 1, 3 or 10 mg/kg body weight (i.e., 2, 6 or 20 mg/kg/day) and once daily at dose of 30 mg/kg body weight. Telmisartan was administered once daily at a dose of 10 mg/kg body weight.
C57BL/6 mice (15-day pregnant female) were obtained from Charles River Laboratories Japan (Japan). The animals were maintained in a SPF facility under controlled conditions of temperature (23±2° C.), humidity (45±10%), lighting (12-hour artificial light and dark cycles; light from 8:00 to 20:00) and air exchange. A high pressure (20±4 Pa) was maintained in the experimental room to prevent contamination of the facility.
Mice were fasted for 4 hours before blood was collected at the time of sacrifice. HbA1c levels were quantified in whole blood samples by DCA Vantage Analyzer (Siemens Healthcare Diagnostics, USA). For plasma biochemistry, blood was collected in polypropylene tubes with anticoagulant (Novo-Heparin;) and centrifuged at 1,000×g for 15 minutes at 4° C. The supernatant was collected and stored at −80° C. until use. Plasma levels of glucose, ALT, TG and total cholesterol were measured by FUJI DRI-CHEM 7000 (Fujifilm, Japan). Plasma insulin concentration was quantified by the Ultra Sensitive Mouse Insulin ELISA Kit.
Liver total lipid-extracts were obtained by Folch's method (Folch J. et al., J. Biol. Chem. 1957; 226: 497). Liver samples were homogenized in chloroform-methanol (2:1, v/v) and incubated overnight at room temperature. After washing with chloroform-methanol-water (8:4:3, v/v/v), the extracts were evaporated to dryness, and dissolved in isopropanol. Liver TG levels were measured by Triglyceride E-test (Wako Pure Chemical Industries). Extracts were diluted 2-fold in isopropanol when the TG content exceeded the detection limit.
For HE staining, sections were cut from paraffin blocks of liver tissue prefixed in Bouin's solution and stained with Lillie-Mayer's Hematoxylin (Muto Pure Chemicals, Japan) and eosin solution (Wako Pure Chemical Industries). NAFLD Activity score (NAS) was calculated according to the criteria of Kleiner (Kleiner D E et al., Hepatology, 2005; 41:1313). To visualize collagen deposition, Bouin's fixed liver sections were stained using picro-Sirius red solution (Waldeck, Germany). To visualize macro- and microvesicular fat, cryosections were cut from frozen liver tissues, prefixed in 10% neutral buffered formalin, embedded in Tissue-Tek O.C.T. compound (Sakura Finetek Japan, Japan), and stained with Oil Red O (Sigma-Aldrich). For immunohistochemistry, sections were cut from frozen liver tissues embedded in Tissue-Tek O.C.T. compound and fixed in acetone. Endogenous peroxidase activity was blocked using 0.03% H2O2 for 5 minutes, followed by incubation with Block Ace (Dainippon Sumitomo Pharma, Japan) for 10 minutes. The sections were incubated with a 200-fold dilution of anti-F4/80 antibody (BMA Biomedicals, Switzerland) over night at 4° C. After incubation with secondary antibody (HRP-Goat anti-rat antibody, Invitrogen, USA), enzyme-substrate reactions were performed using 3, 3′-diaminobenzidine/H2O2 solution (Nichirei, Japan). […]

For CCN(CC)C/C=C\c1cc(F)ccc1S(=O)(=O)Nc1ccc2c(c1C(=O)O)OC[C@@H]1C[C@H]21 (single isomer, unassigned) [Example 12], which fraction unbound [1] is on record?
Its fraction unbound is 0.228.

What about the “CEREP screen, inhibition” value (72 receptors and enzymes) of the same compound?
Its value is <35% inhibition at 10 μM.

And the “HE-stained liver sections vs Vehicle group” value (NASH mice; 1 mg/kg (BID))?
The value was “No obvious differences”.

And the “Mean body weight at the day before sacrifice” value (“Mean body weight” for short) (NASH mice; 1 mg/kg (BID) oral)?
The value was 19.2 ± 1.4 g.

What about the “Fibrosis area (Sirius red-positive area)” value (NASH mice; 1 mg/kg (BID)) of the same compound?
Its value is 1.12±0.46%.

And the “Inflammation area (F4/80-positive area)” value (NASH mice; 1 mg/kg (BID))?
Its value is 3.67±0.91%.

What about the “Fat deposition area (oil red-positive area)” value (“Fat deposition area” below) (NASH mice; 1 mg/kg (BID)) of the same compound?
The value was 18.47±5.22%.

What about the “Liver TG content” value (NASH mice; 1 mg/kg (BID)) of the same compound?
Its value is 71.7±30.3 mg/g liver.

And the “Hepatocellular ballooning and inflammatory cell infiltration vs Vehicle group” value (NASH mice; 3 mg/kg (BID))?
Its value is “decrease”.

What about the “Mean body weight” value (NASH mice; 3 mg/kg (BID) oral) of the same compound?
The value was 18.7 ± 1.4 g.

And the “Whole blood HbA1c levels” value (NASH mice; 3 mg/kg (BID))?
Its value is “decreased”.

And the “Fibrosis area (Sirius red-positive area)” value (NASH mice; 3 mg/kg (BID))?
Its value is 0.89±0.32%.

And the “Inflammation area (F4/80-positive area)” value (NASH mice; 3 mg/kg (BID))?
The value was 3.47±0.65%.

And the “NAFLD Activity score (NAS)” value (NASH mice; 3 mg/kg (BID))?
The value was 3.6±1.6.

What about the “Fat deposition area” value (NASH mice; 3 mg/kg (BID)) of the same compound?
Its value is 19.53±4.64%.

What about the “Liver TG content” value (NASH mice; 3 mg/kg (BID)) of the same compound?
The value was 52.9±18.5 mg/g liver.

What about the “Hepatocellular ballooning and inflammatory cell infiltration vs Vehicle group” value (NASH mice; 10 mg/kg (BID)) of the same compound?
The value was “decrease”.

What about the “Mean body weight” value (NASH mice; 10 mg/kg (BID) oral) of the same compound?
Its value is 18.7 ± 1.0 g.

And the “Whole blood HbA1c levels” value (NASH mice; 10 mg/kg (BID))?
Its value is “decreased”.

What about the “Fibrosis area (Sirius red-positive area)” value (NASH mice; 10 mg/kg (BID)) of the same compound?
The value was 1.07±0.31%.

And the “Inflammation area (F4/80-positive area)” value (NASH mice; 10 mg/kg (BID))?
Its value is 3.82±0.57%.

And the “NAFLD Activity score (NAS)” value (NASH mice; 10 mg/kg (BID))?
Its value is 3.4±1.5.

What about the “Fat deposition area” value (NASH mice; 10 mg/kg (BID)) of the same compound?
The value was 23.31±9.18%.

And the “Liver TG content” value (NASH mice; 10 mg/kg (BID))?
The value was 56.7±25.8 mg/g liver.

What about the “HE-stained liver sections vs Vehicle group” value (NASH mice; 30 mg/kg (QD)) of the same compound?
Its value is “No obvious differences”.

What about the “Mean body weight” value (NASH mice; 30 mg/kg (QD) oral) of the same compound?
Its value is 17.9 ± 0.9 g.

And the “Fibrosis area (Sirius red-positive area)” value (NASH mice; 30 mg/kg (QD))?
The value was 0.99±0.43%.

And the “Inflammation area (F4/80-positive area)” value (NASH mice; 30 mg/kg (QD))?
Its value is 3.90±0.78%.

And the “Fat deposition area” value (NASH mice; 30 mg/kg (QD))?
Its value is 22.30±9.59%.

And the “Liver TG content” value (NASH mice; 30 mg/kg (QD))?
The value was 62.4±18.1 mg/g liver.

What about the “Plasma total cholesterol levels” value (NASH mice; BID dosing, dose dependent, FIG. 10) of the same compound?
Its value is “decreased”.

And the NAS (NASH mice; QD dosing (30 mg/kg))?
Its NAS is “did not show evident improvement”.

What about the “Plasma total cholesterol levels” value (NASH mice; QD dosing (30 mg/kg)) of the same compound?
Its value is “significantly decreased”.

And the “Whole blood HbA1c” value (NASH mice; QD dosing (30 mg/kg))?
The value was “did not show evident improvement”.
